Measured values taken from the supplement of paper PMC4862054.

Experiments:
Assay in all cases: normalised viability (% of control), CellTiter-Blue; higher = more viable cells (about 100 = DMSO control)
Conditions in all cases: incubation time: 72 h
DU-4475 [1] = system: DU-4475
Experimental: (§1)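 DSRT, CellTiter-Blue viability, 72 h incubation. Signal is normalised to DMSO and benzethonium chloride controls. Value is the normalised response at dose 7.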

CAL-51 [2] = system: CAL-51
Experimental: as §1

MDA-MB-453 [3] = system: MDA-MB-453
Experimental: as §1

CAL-85-1 [4] = system: CAL-85-1
Experimental: as §1

CAL-148 [5] = system: CAL-148
Experimental: as §1

HDQ-P1 [6] = system: HDQ-P1
Experimental: as §1

DU-4475 [7] = system: DU-4475; remark: listed apart in the source
In short: (§2)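 384-well plates were pre-loaded with compound in 5 µl medium before 20 µl of breast cancer cell suspension was seeded. Following 72 h incubation, 2.5 µl CellTiter-Blue reagent was added for 2 h at 37 °C. Fluorescence was read at 560/590 nm and plates were normalised to vehicle (100) and a positive kill control (0), checked by Z'-factor. Normalised viability is reported at a single listed concentration of the series.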

CAL-51 [8] = system: CAL-51; remark: listed apart in the source
In short: as §2

MDA-MB-453 [9] = system: MDA-MB-453; remark: listed apart in the source
In short: as §2

CAL-85-1 [10] = system: CAL-85-1; remark: listed apart in the source
In short: as §2

CAL-148 [11] = system: CAL-148; remark: listed apart in the source
In short: as §2

HDQ-P1 [12] = system: HDQ-P1; remark: listed apart in the source
In short: as §2

SMILES	normalised viability (DU-4475 [1])	normalised viability (CAL-51 [2])	normalised viability (MDA-MB-453 [3])	normalised viability (CAL-85-1 [4])	normalised viability (CAL-148 [5])	normalised viability (HDQ-P1 [6])	normalised viability (DU-4475 [7])	normalised viability (CAL-51 [8])	normalised viability (MDA-MB-453 [9])	normalised viability (CAL-85-1 [10])	normalised viability (CAL-148 [11])	normalised viability (HDQ-P1 [12])
COc1ncc(-c2ccc3nccc(-c4ccnnc4)c3c2)cc1NS(=O)(=O)c1ccc(F)cc1F (100 nM)	61.5%	17.2%	7.68%	30.5%	25%	22.3%	–	–	–	–	–	–
COc1ncc(-c2ccc3nccc(-c4ccnnc4)c3c2)cc1NS(=O)(=O)c1ccc(F)cc1F (1000 nM)	–	–	–	–	–	–	10.2%	3.63%	5.04%	18.6%	2.42%	14.4%
C[C@@]1(C(=O)Nc2ccc(F)nc2)CCCN1c1nc(Nc2cc(C3CC3)n[nH]2)c2cccn2n1 (1000 nM)	78.6%	63.4%	56.6%	49.4%	79.6%	32.3%	–	–	–	–	–	–
C[C@@]1(C(=O)Nc2ccc(F)nc2)CCCN1c1nc(Nc2cc(C3CC3)n[nH]2)c2cccn2n1 (10000 nM)	–	–	–	–	–	–	3.48%	6.06%	75.3%	30.6%	49.1%	7.47%
COc1c(C)cnc(Cn2cnc3c(Cl)nc(N)nc32)c1C [BIIB021] (1000 nM)	0.09%	26.1%	6.04%	33.4%	14.6%	46.8%	–	–	–	–	–	–
COc1c(C)cnc(Cn2cnc3c(Cl)nc(N)nc32)c1C [BIIB021] (10000 nM)	–	–	–	–	–	–	-0.63%	9.69%	4.83%	21.7%	15.7%	30.4%
CC(C)C[C@H](NC(=O)[C@H](Cc1ccccc1)NC(=O)c1cnccn1)B(O)O [Bortezomib] (100 nM)	2.48%	2.63%	19.4%	5.3%	18.2%	1.22%	–	–	–	–	–	–
CC(C)C[C@H](NC(=O)[C@H](Cc1ccccc1)NC(=O)c1cnccn1)B(O)O [Bortezomib] (1000 nM)	–	–	–	–	–	–	0.03%	1.02%	11.1%	2.28%	0.38%	-1.16%
CS(=O)(=O)OCCCCOS(C)(=O)=O [Busulfan] (10000 nM)	103%	85.6%	104%	108%	120%	88.2%	–	–	–	–	–	–
CS(=O)(=O)OCCCCOS(C)(=O)=O [Busulfan] (100000 nM)	–	–	–	–	–	–	89%	91.9%	103%	105%	114%	109%
C#Cc1cccc(Nc2ncnc3cc(OC)c(OCCCCCCC(=O)NO)cc23)c1 [CUDC-101] (1000 nM)	60.9%	97.7%	19.1%	24.9%	47%	50%	–	–	–	–	–	–
C#Cc1cccc(Nc2ncnc3cc(OC)c(OCCCCCCC(=O)NO)cc23)c1 [CUDC-101] (10000 nM)	–	–	–	–	–	–	1.42%	18.1%	0.71%	1.33%	0.77%	19.3%
COc1cccc2c1C(=O)c1c(O)c3c(c(O)c1C2=O)C[C@@](O)(C(C)=O)C[C@@H]3O[C@H]1C[C@H](N)[C@H](O)[C@H](C)O1 [Daunorubicin] (100 nM)	41.7%	38%	94.8%	77.2%	30.8%	94.9%	–	–	–	–	–	–
COc1cccc2c1C(=O)c1c(O)c3c(c(O)c1C2=O)C[C@@](O)(C(C)=O)C[C@@H]3O[C@H]1C[C@H](N)[C@H](O)[C@H](C)O1 [Daunorubicin] (1000 nM)	–	–	–	–	–	–	-1.24%	1.88%	11.6%	12.2%	-0.25%	16%
CN1CCN(c2ccc3nc(-c4c(N)c5c(F)cccc5[nH]c4=O)[nH]c3c2)CC1 [Dovitinib] (1000 nM)	94.7%	116%	91.4%	78.3%	90.7%	69.7%	–	–	–	–	–	–
CN1CCN(c2ccc3nc(-c4c(N)c5c(F)cccc5[nH]c4=O)[nH]c3c2)CC1 [Dovitinib] (10000 nM)	–	–	–	–	–	–	96.7%	108%	79%	87.1%	88.5%	96.4%
O=c1[nH]c(=O)n([C@H]2C[C@H](O)[C@@H](CO)O2)cc1F [Floxuridine] (1000 nM)	91.6%	31.9%	81.9%	53.1%	50.6%	86.5%	–	–	–	–	–	–
O=c1[nH]c(=O)n([C@H]2C[C@H](O)[C@@H](CO)O2)cc1F [Floxuridine] (10000 nM)	–	–	–	–	–	–	56.2%	15.5%	32.2%	39.3%	31.9%	93.9%
O=c1[nH]cc(F)c(=O)[nH]1 [Fluorouracil] (1000 nM)	105%	102%	91.7%	74.2%	75.5%	96.1%	–	–	–	–	–	–
